Laboratory results published in ChEMBL document CHEMBL1125969, “Design, synthesis and cytotoxic evaluation of keto-C-glycoside fatty acid conjugates” (Bioorg Med Chem Lett, 1991).

tested on: LFCl2A; assay: In vitro cytotoxicity against LFCl2A (rat hepatocarcinoma) cells.; format: functional, cell-based; conditions: not given

SMILES	IC50 [µM]
O=c1[nH]cc(F)c(=O)[nH]1 [FLUOROURACIL]	28.5

same assay, conditions: read-out: IC50

SMILES	IC50 [µM]
CCCC(=O)OC[C@H]1O[C@H](C2CCCC=C2C)C=CC1=O (some centres undefined)	0.35
CC/C=C\C/C=C\C/C=C\C/C=C\C/C=C\C/C=C\CCC(=O)OC[C@H]1O[C@H](CC2=CCCCC2)C=CC1=O	0.05
CC1=CCCCC1[C@H]1O[C@H](CO)C=CC1=O (some centres undefined)	3.5
CCCCCCCC/C=C\CCCCCCCC(=O)OC[C@H]1O[C@H](CC2=CCCCC2)C=CC1=O	0.08
O=C1C=C[C@@H](CO)O[C@@H]1CC1=CCCCC1	9.5
CCCCC/C=C\C/C=C\C/C=C\C/C=C\CCCC(=O)OC[C@@H]1C=CC(=O)[C@@H](C2CCCC=C2C)O1 (some centres undefined)	5
CCCCC/C=C\C/C=C\C/C=C\C/C=C\CCCC(=O)OC[C@H]1O[C@H](CC2=CCCCC2)C=CC1=O	7
CCCCCCCC/C=C\CCCCCCCC(=O)OC[C@H]1O[C@H](C2CCCC=C2C)C=CC1=O (some centres undefined)	0.05
CC(=O)OC[C@H]1O[C@H](CC2=CCCCC2)C=CC1=O	0.15
CC/C=C\C/C=C\C/C=C\C/C=C\C/C=C\C/C=C\CCC(=O)OC[C@H]1O[C@H](C2CCCC=C2C)C=CC1=O (some centres undefined)	0.02
O=C1C=C[C@@H](CC2=CCCCC2)O[C@@H]1CO	3
CCCCC/C=C\C/C=C\C/C=C\C/C=C\CCCC(=O)OC[C@H]1O[C@H](C2CCCC=C2C)C=CC1=O (some centres undefined)	0.001
CC/C=C\C/C=C\C/C=C\C/C=C\C/C=C\C/C=C\CCC(=O)OC[C@@H]1C=CC(=O)[C@@H](CC2=CCCCC2)O1	30
CCCCCCCC/C=C\CCCCCCCC(=O)OC[C@@H]1C=CC(=O)[C@@H](C2CCCC=C2C)O1 (some centres undefined)	35
CCCC(=O)OC[C@H]1O[C@H](CC2=CCCCC2)C=CC1=O	0.09
CCCCC/C=C\C/C=C\C/C=C\C/C=C\CCCC(=O)OC[C@@H]1C=CC(=O)[C@@H](CC2=CCCCC2)O1	35
CC(=O)OC[C@H]1O[C@H](C2CCCC=C2C)C=CC1=O (some centres undefined)	0.7
CC/C=C\C/C=C\C/C=C\C/C=C\C/C=C\C/C=C\CCC(=O)OC[C@@H]1C=CC(=O)[C@@H](C2CCCC=C2C)O1 (some centres undefined)	65
